How the values were obtained:
[1] = biological target: T1, human GLP-1 receptor (Homo sapiens, UniProt P43220); test: GLP-1R cAMP assay (HitHunter cAMP accumulation); assay type: cell-based; conditions: CHO cells stably overexpressing human GLP-1 receptor, 30 min, 20-point dose response in triplicate
T1 construct: expressed in transfected cells
Protocol: CAMP accumulation was measured in Chinese hamster ovary (CHO) cells stably overexpressing the human GLP-1 receptor using the HitHunter CAMP Assay for Small Molecules Kit (Eurofins). Briefly, cells were grown in Ham's F12 Nutrient Mix with 10% FBS, and lifted with Cell Dissociation Buffer, Enzyme free, PBS based (ThermoFisher). […] The anti-cAMP antibody reagent was then added to cells at a 1:2 ratio and 5 μL of mixture was seeded in 384-well small volume white assay plates, at 10,000 cells/well. Cells were then treated with 50 nL compound using an ECHO 550 acoustic dispenser (Labcyte) in a 20-point dose response format in triplicate for 30 min. Cells were then lysed, and detection reagents added according to the manufacturer's protocol. After overnight incubation, luminescence was measured using a Perkin Elmer Envision plate reader. Dose response curves were analyzed using GraphPad Prism 9.0.

[2] = tested on: cynomolgus monkeys (Macaca fascicularis); test: Intravenous glucose tolerance test (IVGTT) in cynomolgus monkeys; assay type: in vivo; conditions: fasted, test article 6 mg/mL IV bolus 1-6 min before IV glucose 0.5 g/kg, plasma insulin 0-60 min, FIG. 1
Protocol: Intravenous Glucose Tolerance Test (IVGTT) in Cynomolgus Monkeys
Aged ([…]) cynomolgus monkeys (Macaca fascicularis; N=4-5/test article) were fasted overnight and anesthetized with ketamine prior to the intravenous glucose tolerance test (IVGTT). The test articles were formulated at 6 mg/mL in vehicle (5% polyethylene glycol 400: 95% (12% (w/v) sulfobutylether-β-cyclodextrin in deionized water) (v/v)]) and administered by intravenous bolus into a peripheral vein 1-6 minutes prior to the IVGTT. The IVGTT was initiated by administration of an IV bolus of glucose (0.5 g/kg as a 50% glucose solution). Blood samples were collected from a peripheral vein 0, 1, 3, 5, 10, 20, 40 and 60 minutes upon completion of the IV bolus glucose injection. The blood samples were collected directly into potassium ethylene diamine tetra-acetic acid tubes and plasma separated by centrifugation at 2,500 g for 10 minutes within 30 minutes of collection. The plasma from all time points was analyzed for insulin concentrations (μU/mL) using a Cobas e411 Immunology analyzer. Insulin area-under-the-curve (AUC) was calculated using GraphPad Prism software (v 9).

T1 sequence (P43220 24-463): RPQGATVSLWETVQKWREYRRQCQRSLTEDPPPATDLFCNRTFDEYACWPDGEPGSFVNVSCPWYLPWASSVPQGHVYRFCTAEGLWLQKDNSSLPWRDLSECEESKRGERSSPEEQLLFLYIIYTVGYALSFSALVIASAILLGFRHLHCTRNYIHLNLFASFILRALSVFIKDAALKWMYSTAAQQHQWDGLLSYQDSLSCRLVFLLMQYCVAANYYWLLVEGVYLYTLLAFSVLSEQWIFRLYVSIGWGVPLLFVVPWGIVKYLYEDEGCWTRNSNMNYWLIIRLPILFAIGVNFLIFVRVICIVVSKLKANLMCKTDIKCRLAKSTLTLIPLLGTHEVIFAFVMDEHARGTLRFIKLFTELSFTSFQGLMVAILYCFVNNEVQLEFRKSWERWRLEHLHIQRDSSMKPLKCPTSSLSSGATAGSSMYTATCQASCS

Row | EC50 [1] [µM] | SMILES | insulin secretion / insulin AUC [2]
1 | < 0.05 | CCn1cncc1Cn1c(CN2CCC([C@H](F)c3cccc(COc4ccc(Cl)cc4C#N)c3)CC2)nc2ccc(C(=O)O)cc21 (single isomer, unassigned) [Example 263] | –
2 | – | CCn1cncc1Cn1c(CN2CCC(Oc3ccnc(COc4ccc(Cl)cc4Cl)c3)CC2)nc2ccc(C(=O)O)cc21 [Example 145, 2-((4-((2-((2,4-Dichlorophenoxy)methyl)pyridin-4-yl)oxy)piperidin-1-yl)methyl)-1-((1-ethyl-1H-imidazol-5-yl)methyl)-1H-benzo[d]imidazole-6-carboxylic acid] | an increase in insulin secretion was observed
3 | < 0.05 | O=C(O)c1ccc2nc(CN3CCC(Nc4ccnc(COc5ccc(Cl)cc5F)n4)CC3)n(C[C@@H]3CCO3)c2c1 [Example 381, (S)-2-((4-((2-((4-Chloro-2-fluorophenoxy)methyl)pyrimidin-4-yl)amino)piperidin-1-yl)methyl)-1-(oxetan-2-ylmethyl)-1H-benzo[d]imidazole-6-carboxylic acid] | –
4 | – | C[C@H]1C[C@@H](Oc2ccnc(COc3ccc(C#N)cc3F)n2)CCN1Cc1nc2ccc(C(=O)O)cc2n1C[C@@H]1CCO1 [Example 313, 2-(((2S,4S)-4-((2-((4-Cyano-2-fluorophenoxy)methyl)pyrimidin-4-yl)oxy)-2-methylpiperidin-1-yl)methyl)-1-(((S)-oxetan-2-yl)methyl)-1H-benzo[d]imidazole-6-carboxylic acid] | an increase in insulin secretion was observed
5 | – | C[C@H]1C[C@@H](Oc2ccnc(COc3ccc(F)cc3C#N)n2)CCN1Cc1nc2ccc(C(=O)O)cc2n1C[C@@H]1CCO1 [Example 355, 2-(((2S,4S)-4-((2-((2-cyano-4-fluorophenoxy)methyl)pyrimidin-4-yl)oxy)-2-methylpiperidin-1-yl)methyl)-1-(((S)-oxetan-2-yl)methyl)-1H-benzo[d]imidazole-6-carboxylic acid] | an increase in insulin secretion was observed
6 | < 0.05 | O=C(O)c1ccc2nc(CN3CCC(Oc4cccc(COc5ccc(F)cc5Cl)c4)CC3)n(C[C@@H]3CCO3)c2c1 [Compound 207] | –
7 | < 0.05 | CCn1cncc1Cn1c(CN2CCC([C@@H](F)c3cccc(COc4ccc(Cl)cc4C#N)c3)CC2)nc2ccc(C(=O)O)cc21 (single isomer, unassigned) [Example 260] | –
8 | < 0.05 | CN(c1ccnc(COc2ccc(Cl)cc2F)n1)C1CCN(Cc2nc3ccc(C(=O)O)cc3n2C[C@@H]2CCO2)CC1 [Compound 382, 2-{[4-({2-[(4-chloro-2-fluorophenoxy)methyl]pyrimidin-4-yl}(methyl)amino)piperidin-1-yl]methyl}-1-{[(2S)-oxetan-2-yl]methyl}-1H-1,3-benzodiazole-6-carboxylic acid] | –
9 | – | CCn1cncc1Cn1c(CN2CCC(Oc3ccnc(COc4ccc(Cl)cc4C#N)c3)CC2)nc2ccc(C(=O)O)cc21 [Compound 171, 2-{[4-({2-[(4-chloro-2-cyanophenoxy)methyl]pyridin-4-yl}oxy)piperidin-1-yl]methyl}-1-[(1-ethyl-1H-imidazol-5-yl)methyl]-1H-1,3-benzodiazole-6-carboxylic acid] | an increase in insulin secretion was observed
10 | – | O=C(O)c1ccc2nc(CN3CCC(Oc4ccnc(COc5ccc(C(F)(F)F)cc5F)n4)CC3)n(C[C@@H]3CCO3)c2c1 [Compound 338] | an increase in insulin secretion was observed
11 | – | O=C(O)c1ccc2nc(CN3CCC(Oc4ccnc(COc5ccc(F)cc5Cl)n4)CC3)n(C[C@@H]3CCO3)c2c1 [Compound 326] | an increase in insulin secretion was observed

Row | SMILES | EC50 [1] [µM] | insulin secretion / insulin AUC [2]
12 | N#Cc1ccc(OCc2nccc(OC3C[C@H]4CC[C@@H](C3)N4Cc3nc4ccc(C(=O)O)cc4n3C[C@@H]3CCO3)n2)c(F)c1 (single isomer, unassigned) [Compound 488] | 0.05 to 0.5 | –

Source: US12459929B2 (Carmot Therapeutics Inc., priority 2021, dated 2025)
